Experiment: Ginsenoside concentrations in rat plasma after oral RGE
Type: in vivo
Method: Ginsenoside concentrations in RGE and plasma samples were analyzed using an Agilent 6470 triple quadrupole liquid chromatography–tandem mass spectrometry (LC–MS/MS) system (Agilent, Wilmington, DE, USA) equipped with an Agilent 1260 high performance liquid chromatography (HPLC) system, according to a previously published method. […] Aliquots (20 μL) of the supernatant were injected into the LC–MS/MS system for the analysis of ginsenosides. […] The solvent gradient program was as follows: (1) 0–0.5 min, 72% B; (2) 0.5–8.5 min, 84% B; (3) 8.5–19.0 min, 72%.
Quantification of a separated ginsenoside peak was performed at m/z 1131.6 → 365.1 for Rb1 (TR (retention time) 5.0 min), m/z 1101.6 → 335.1 for Rb2 (TR 6.4 min) and Rc (TR 5.2 min), m/z 969.9 → 789.5 for Rd (TR 8.2 min) and Re (TR 1.6 min), m/z 824 → 643.6 for Rg1 (TR = 1.7 min), m/z 807.5 → 365.1 for Rg3 (TR 12.3 min), m/z 661.5 → 203.1 for Rh1 (TR 3.2 min) and F1 (TR 3.9 min), m/z 587.4 → 407.4 for Rh2 (TR 11.5 min), m/z 807.5 → 627.5 for F2 (TR 5.3 min), m/z 645.5 → 203.1 for compound K (TR 9.5 min), m/z 425.4 → 109.1 for protopanaxadiol (TR 18.8 min), m/z 441.3 → 109.1 for protopanaxatriol (TR 2.9 min), and m/z 336.1 → 320 for berberine (internal standard, IS) (TR 3.7 min) in the positive ionization mode with collision energy (CE) of 15–65 eV.

| SMILES | concentration at 2 h (rat, plasma, 2 h after single oral administration of RGE (1.5 g/kg), read-out: Concentration in rat plasma, SA) | concentration at 24 h (rat, plasma, 24 h after last dose of 1-week repeated oral RGE (1.5 g/kg/day), read-out: Concentration in rat plasma, 1WRA) | Concentration in rat plasma, SA (2 h after single oral administration of RGE (1.5 g/kg)) | Concentration in rat plasma, 1WRA (24 h after last dose of 1-week repeated oral RGE (1.5 g/kg/day)) |
| --- | --- | --- | --- | --- |
| CC(C)=CCC[C@](C)(O[C@@H]1O[C@H](CO[C@@H]2O[C@H](CO)[C@@H](O)[C@H](O)[C@H]2O)[C@@H](O)[C@H](O)[C@H]1O)[C@H]1CC[C@]2(C)[C@@H]1[C@H](O)C[C@@H]1[C@@]3(C)CC[C@H](O[C@@H]4O[C@H](CO)[C@@H](O)[C@H](O)[C@H]4O[C@@H]4O[C@H](CO)[C@@H](O)[C@H](O)[C@H]4O)C(C)(C)[C@@H]3CC[C@]12C [Rb1] | 14.3 ± 2.7 ng/mL | 35.7 ± 1.9 ng/mL | – | – |
| CC(C)=CCC[C@](C)(O[C@@H]1O[C@H](CO[C@@H]2OC[C@H](O)[C@H](O)[C@H]2O)[C@@H](O)[C@H](O)[C@H]1O)[C@H]1CC[C@]2(C)[C@@H]1[C@H](O)C[C@@H]1[C@@]3(C)CC[C@H](O[C@@H]4O[C@H](CO)[C@@H](O)[C@H](O)[C@H]4O[C@@H]4O[C@H](CO)[C@@H](O)[C@H](O)[C@H]4O)C(C)(C)[C@@H]3CC[C@]12C [Rb2] | – | – | 6.3 ± 2.1 ng/mL | 29.4 ± 1.5 ng/mL |
